The experiment has as its target T1, human Chemokine like receptor 1 (Homo sapiens, UniProt Q99788).
T1 construct: host or cells: U2OS (Tango CMKLR1-bla U2OS)
T1 sequence (Q99788 1-373): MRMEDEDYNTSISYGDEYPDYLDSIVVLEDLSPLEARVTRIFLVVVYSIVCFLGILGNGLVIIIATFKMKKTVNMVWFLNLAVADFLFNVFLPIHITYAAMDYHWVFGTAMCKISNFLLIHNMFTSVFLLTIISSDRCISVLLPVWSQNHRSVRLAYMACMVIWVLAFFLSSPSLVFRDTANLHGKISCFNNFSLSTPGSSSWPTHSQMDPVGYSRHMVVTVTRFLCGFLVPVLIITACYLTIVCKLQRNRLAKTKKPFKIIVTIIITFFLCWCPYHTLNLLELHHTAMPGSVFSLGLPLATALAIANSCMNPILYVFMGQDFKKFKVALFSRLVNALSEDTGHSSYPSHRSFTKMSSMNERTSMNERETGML
Put plainly: Activation of Tango CMKLR1-bla U2OS cells (beta-lactamase FRET reporter). It counts as cell-based. Particulars: read-out: EC50. The gist of the method:
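Agonist mode in Tango CMKLR1-bla U2OS cells, 10000 cells/well seeded overnight, then 10-point 3-fold compound dilutions from 10 mM DMSO stock applied for 4 h at 37 °C, 5% CO2. Beta-lactamase reporter read with CCF4-AM FRET substrate; peptide (D-Tyr)-Phe-Leu-Pro-(D-Ser)-Gln-Phe-(D-Ala)-Tic-Ser served as positive control.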

For two compounds, EC50 results are on record in patent US12129312B2, “Peptide compound, application thereof and composition containing same” (priority 2017, dated 2024).

What is called EC50 is the concentration giving half of the maximal effect.

Read-outs that look alike come from different tables or passages of the source. Square brackets hold non-standard residues; d marks the D form. Peptide text beside a SMILES is read from it. * marks the point of attachment. Hydrocinnamoyl = O=C(CCc1ccccc1)*; Tic = O=C(O)[C@@H]1Cc2ccccc2CN1; NMeL = CN[C@@H](CC(C)C)C(=O)O

For the compound `CC(C)C[C@H](NC(=O)[C@H](Cc1ccccc1)NC(=O)[C@H](N)Cc1ccc(O)cc1)C(=O)N1CCC[C@H]1C(=O)N[C@H](CO)C(=O)N[C@@H](CCC(N)=O)C(=O)N[C@@H](Cc1ccccc1)C(=O)N[C@H](C)C(=O)N1Cc2ccccc2C[C@H]1C(=O)N[C@@H](CO)C(=O)O` [YW-3, (D-Tyr)-Phe-Leu-Pro-(D-Ser)-Gln-Phe-(D-Ala)-Tic-Ser, reference compound] (H-[dY]FLP[dS]QF[dA][Tic]S-OH), the EC50 (Tango CMKLR1-bla U2OS cells, 4 hours incubation, four-parameter fit of activation rate) was determined as 19 nM.

As for `CC(C)C[C@@H](C(=O)N1CCC[C@H]1C(=O)N[C@H](CO)C(=O)N[C@@H](CCC(N)=O)C(=O)N[C@@H](Cc1ccccc1)C(=O)N[C@H](C)C(=O)N1Cc2ccccc2C[C@H]1C(=O)N[C@@H](CO)C(=O)O)N(C)C(=O)[C@H](Cc1ccccc1)NC(=O)[C@@H](Cc1ccc(O)cc1)NC(=O)CCc1ccccc1` [YW-111, 3-phenylpropanoyl-(D-Tyr)-Phe-(NMe-Leu)-Pro-(D-Ser)-Gln-Phe-(D-Ala)-Tic-Ser-OH] (Hydrocinnamoyl-[dY]F[NMeL]P[dS]QF[dA][Tic]S-OH), where the note is “determination by the method of Effect Embodiment 1”, the EC50 was found to be 2 nM.
